# Reference: US9243031B2, “Complex-forming compounds” (priority 2011, dated 2016)
# Entries after “also recorded” stand apart in the source; their conditions may differ. Read-outs that look alike come from different tables or passages of the source.
# Experiments:
# [1] = Quantum chemical calculation of the Ca2+ ion changing process (Gaussian09, B3LYP/LANL2DZ); details: ratio of calculated RH values
# Procedure: Since there is no appropriate analytical method for the measurement of the complex-forming properties of these compounds with sufficient accuracy, we determined the complex-forming constants compared to the calcium ion complexes with high level quantum chemical calculations. The calculations were performed using Gaussian09 software on B3LYP/LANL2DZ theoretical level. In course of the calculations frequency calculations were also performed from which thermodynamic data were also determined.
# The ion binding capabilities to each of ions are compared to the calcium binding capabilities, which is shown by RH (relative complex-forming tendency).
# The thermodynamic data (ΔE, ΔH, ΔG) were calculated with mathematical equations from the values of E, H and G counted on quantum chemical basis: ΔE[complex-M]=E[complex-M]+E[CaCl2.6H2O]−{E[complex-Ca]+E[MCl2.6H2O]} ΔH[complex-M]=H[complex-M]+H[CaCl2.6H2O]−{H[complex-Ca]+H[MCl2.6H2O]} ΔG[complex-M]=G[complex-M]+G[CaCl2.6H2O]−{G[complex-Ca]+G[MCl2.6H2O]}
# The relative complex-forming constant (RG) compared to the Ca^2+ ion can be calculated with the following equation: […]
# Since the quotient formation expectedly causes a loss of entropy coefficients, the following equation was used which is more practical due to the fluctuation of the calculated entropy coefficient: […]
# [2] = Measurement of metal selectivity by HPLC-MS (ESI), ratio of metal adduct to Ca adduct signals; format: binding
# Procedure: (§1) Therefore, the measurements of Ca—Sr ionselectivity were carried out with an AGILENT 6140 Octapol MS (mass spectrometer) equipped with an AGILENT 1200 HPLC. The ionization was carried out by using an electron-spray (ESI, MM-FS) soft ionization equipment with positive detection. During the measurements different complex-forming compounds of the formulas (P-1), P-2), (P-3) prepared with the synthesizes shown above and decorporol of the formula (XI) were added to stock solutions, then the solutions were measured with mass spectrometry.
# (§2) The measuring of Ca—Sr ionselectivity was carried out with an AGILENT 6140 Octapol MS (mass spectrometer) equipped with an AGILENT 1200 HPLC. The ionization was carried out by using an electron-spray (ESI, MM-FS) soft ionization equipment with positive detection. The used field strength was 10000V, the spray temperature 220° C., Fragmentor: 70; Treshold: 500, stepsize 0.2 Da; Ionization Switch Delay: 0 ms; Polarity Switch Delay 300 ms; Gain: 1:0; Mass range: 100-1200 Da. Nitrogen gas was used. These parameters were obtained by optimization. The used HPLC column was a 30 mm long WATERS ACQUITY UPLC column with an inner diameter of 2.1 mm and filled with C18 packing of 1.8 um. The amounts of the injected samples were changed between 2-10 ul. The eluents used due to the appropriate ionization were as follows:
# (§3) Eluent A: 0.395 g of NH4HCO3 dissolved in 1 l water+50 ml MeCN.
# (§4) Solution A: 0.1 M Ca ion stock solution: 222.1 mg (2 mmol) of anhydrous CaCl2 are dissolved in 20 ml of distilled water.
# Solution B: 0.1 M Sr ion stock solution: 533.5 mg (2 mmol) of SrCl2.6H2O are dissolved in 20 ml of distilled water.
# (§5) 100 μl of A stock solution and to 100 μl of I, II, III or IV solutions 100 μl of B-G solution are added according to the Table below and the amount of the thus obtained samples are completed to 1 ml, then injected into the HPLC.
# (§6) A minimal retention time of 0.75 minutes was registered in case of the tests with Decorporol. We registered the free complex-forming compound (M+H+DA), the calcium adduct (M−H^++38 Da) and the strontium complex (M−H^++86 Da) in every case. Due to the very similar chemical properties of the Ca ion and the strontium ion it is presumable that they behave similarly during ionization, therefore we have determined the selectivity compared to Ca ion by the ratio of the average mass spectrometry signals of Ca adducts to Sr adducts. In case of the measurements of the physiologically important and toxic metal ions the compound of formula (P-3) was used. The signal of the corresponding metal ion adduct was always well separated from the signal of the mother compound and from the signal of the Ca-adduct.
# [3] = as above; format: binding; remark: listed apart in the source
# [4] = as above; format: binding; details: for binding of Cu ion (in words): HPLC-MS
# Procedure: as §1, §2, §3, §4
# Solution C: 0.1 M Cu ion stock solution: 500.0 mg (2 mmol) of CuSO4.5H2O are dissolved in 20 ml of distilled water.
# as §5, §6
# [5] = as above; format: binding; details: for binding of Zn ion (in words): HPLC-MS
# Procedure: as §1, §2, §3, §4
# Solution D: 0.1 M Zn ion stock solution: 272.5 mg (2 mmol) of ZnCl2 are dissolved in 20 ml of distilled water.
# as §5, §6
# [6] = as above; format: binding; remark: listed apart in the source
# Procedure: as §1
# The measuring of Ca—Sr ionselectivity was carried out with an AGILENT 6140 Octapol MS (mass spectrometer) equipped with an AGILENT 1200 HPLC. The ionization was carried out by using an electron-spray (ESI, MM-FS) soft ionization equipment with positive detection. The used field strength was 10000V, the spray temperature 220° C., Fragmentor: 70; Treshold: 500, stepsize 0.2 Da; Ionization Switch Delay: 0 ms; Polarity Switch Delay 300 ms; Gain: 1:0; Mass range: 100-1200 Da. […]
# A minimal retention time of 0.75 minutes was registered in case of the tests with Decorporol. […] Due to the very similar chemical properties of the Ca ion and the strontium ion it is presumable that they behave similarly during ionization, therefore we have determined the selectivity compared to Ca ion by the ratio of the average mass spectrometry signals of Ca adducts to Sr adducts. […]
# [7] = as above; format: binding; details: for binding of Sn ion (in words): HPLC-MS; for M^2+/Ca^2+ rate: M = Sn
# Procedure: as §1, §2, §3, §4
# Solution E: 0.1 M Sn ion stock solution: 379.6 mg (2 mmol) of SnCl2 are dissolved in 20 ml of distillated water.
# as §5, §6
# [8] = as above; format: binding; details: for binding of Pb ion / palladium (in words): HPLC-MS; for M^2+/Ca^2+ rate / M^2+/Ca^2+ rate, peak of decarboxylated fragment (in brackets): M = Pd
# Procedure: as §1, §2, §3, §4
# Solution F: 0.1 M Pb ion stock solution: 217.0 mg […] of Pb(OOCCF3)2 are dissolved in 5 ml distilled water.
# as §5, §6
# [9] = Decarboxylation observed during the HPLC-MS measurements; format: physicochemical
# Procedure: The decarboxylation, which is characteristic of decorporol, was shown also during the measurements.
# as §2, §6
# This process is well-known and leads to slow degradation of decorporol. The mono-decarboxylated and the double-decarboxylated derivatives are the main contaminants of decorporol and their solubility is very low in water, therefore beyond a certain concentration the complexes could precipitate.
# [10] = mice, compound added intravenously, calcium remained; cited from earlier work
# [11] = during HPLC-MS measurements with metal ions
Molecule,strontium binding affinity compared to the compound of formula (XI) [1],MS peak of the free complex-forming compound compared with the peak of its Sr complex [2],binding of strontium ion (in words) [2],Sr^2+/Ca^2+ rate [3],binding of Cu ion (in words) [4],M^2+/Ca^2+ rate ([4]; M = Cu),binding of Zn ion (in words) [5],M^2+/Ca^2+ rate ([5]; M = Zn),binding of Sn ion (in words) [7],M^2+/Ca^2+ rate [7],binding of Pb ion / palladium (in words) [8],M^2+/Ca^2+ rate [8],"decarboxylation [9, 11]",also measured
"2-(2-{16-[(1,2-Dicarboxy-ethylcarbamoil)-methyl]-1,4,10,13-tetraoxa-7,16-diaza-cyclooctadec-7-yl}-acetylamino)-succinic acid [(P-2)]",approximately 4 fold,significantly lower; also recorded: considerably smaller,stronger than Ca ion,1.4,,,,,,,,,,
"O=C(CN1CCOCCOCCN(CC(=O)NC(C(=O)O)C(=O)O)CCOCCOCC1)NC(C(=O)O)C(=O)O [(P-1), 2-(2-{16-[(Dicarboxymethyl-carbamoyl)-methyl]-1,4,10,13-tetraoxa-7,16-diaza-cyclooctadec-7-yl}-acetiyamino)-malonic acid]",more than 4 fold,significantly lower; also recorded: considerably smaller,,1.25,,,,,,,,,,
"O=C(O)CCC(NC(=O)CN1CCOCCOCCN(CC(=O)NC(CCC(=O)O)C(=O)O)CCOCCOCC1)C(=O)O (stereo not drawn) [(P-3), 2-(2-{16-[(1,3-Dicarboxy-propylcarbamoyl)-methyl]-1,4,10,13-tetraoxa-7,16-diaza-cyclooctadec-7-yl}-acetylamino)-pentanedioic acid]",,significantly lower; also recorded: considerably smaller,strongest; also recorded: stronger than Ca ion,1.5,a little stronger than Ca ion; also recorded: slightly binds,1.1,does not bind,ca. 0,very strongly,100,very strongly,29,does not decarboxylate,binding of Fe ion (in words) ([6]; HPLC-MS): does not bind; M^2+/Ca^2+ rate ([6]; M = Fe): ca. 0
"O=C(O)C(C(=O)O)N1CCOCCOCCN(C(C(=O)O)C(=O)O)CCOCCOCC1 [Decorporol, (7,16-bis-malonate)-1,4,10,13-tetraoxa-7,16-diazacyclooctadecane-bis-malonic acid]",,,,1.2,a bit stronger than the compound of the formula of (P-3),1.2,stronger than Ca,8,significantly less,22,significantly less,20,significant decarboxylation,"MS peak of the free complex-forming compound compared with the peak of its Sr complex ([2]; listed as decorporol): worse; also recorded: lower; M^2+/Ca^2+ rate, peak of decarboxylated fragment (in brackets) ([4]; M = Cu): 1.5; binding of Zn ion (in words) ([5]; listed as decorporol): Good binding; also recorded: stronger than Ca ions; M^2+/Ca^2+ rate, peak of decarboxylated fragment (in brackets) ([5]; M = Zn): 4; M^2+/Ca^2+ rate, peak of decarboxylated fragment (in brackets) ([8]; first bracketed peak): 29; M^2+/Ca^2+ rate, peak of decarboxylated fragment (in brackets) ([8]; second bracketed peak): 40; decarboxylation ([9]; in case of Pb ion): very strong decarboxylation process; removal of strontium from the body [10]: removed selectively"
